PMC10023787, “Trio-pharmacophore DNA-encoded chemical library for simultaneous selection of fragments and linkers” (Nature Communications, 2023)

Assays:
MMP-2 = biological target: T1, MMP-2 (Homo sapiens, UniProt P08253); experiment: MMP-2 inhibition assay (fluorogenic peptide substrate); format: biochemical; conditions: for IC50: mean ± SE, n.d: not detected, Fig. 5d unit inferred, µM, read-out: IC50
T1 construct: purchased Sino Biological 10082-HNAH
T1 sequence (P08253 110-660): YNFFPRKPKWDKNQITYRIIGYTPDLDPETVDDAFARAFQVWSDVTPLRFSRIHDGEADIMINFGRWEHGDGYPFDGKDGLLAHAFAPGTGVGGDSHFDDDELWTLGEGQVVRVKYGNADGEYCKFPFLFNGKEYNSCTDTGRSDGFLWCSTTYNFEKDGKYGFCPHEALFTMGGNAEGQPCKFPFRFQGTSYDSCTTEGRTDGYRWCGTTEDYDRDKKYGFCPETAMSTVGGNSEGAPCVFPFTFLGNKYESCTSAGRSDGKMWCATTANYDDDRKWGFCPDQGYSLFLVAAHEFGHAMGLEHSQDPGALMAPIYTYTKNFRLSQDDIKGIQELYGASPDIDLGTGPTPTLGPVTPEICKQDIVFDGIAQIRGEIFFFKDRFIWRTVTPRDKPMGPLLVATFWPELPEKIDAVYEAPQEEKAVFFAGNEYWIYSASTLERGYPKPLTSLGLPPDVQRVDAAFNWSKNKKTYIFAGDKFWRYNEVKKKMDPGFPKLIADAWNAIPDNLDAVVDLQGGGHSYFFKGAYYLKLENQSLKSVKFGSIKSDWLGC
Procedure, shortened: (§1)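 Human proMMP-2 and proMMP-9 were activated with 1 mM APMA (37 °C, 2 h), then used at 6.5 nM (MMP-2) or 10 nM (MMP-9) in Tris/NaCl/CaCl2/Brij 35 buffer, pH 7.5. Enzyme was preincubated with compound 30 min at RT; 25 μM DNP-Pro-Leu-Gly-Met-Trp-Ser-Arg substrate was added and fluorescence (ex 280/em 360 nm) followed 30 min. IC50 from logistic fits of Vmax.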

MMP-9 = biological target: T2, MMP-9 (Homo sapiens, UniProt P14780); experiment: MMP-9 inhibition assay (fluorogenic peptide substrate); format: biochemical; design: remaining enzyme activity (% of control): scale not given here; conditions: for IC50: mean ± SE, n.d: not detected, Fig. 5e prints no unit, µM, read-out: IC50
T2 construct: purchased Sino Biological 10327-HNAH
T2 sequence (P14780 107-707 limits assumed): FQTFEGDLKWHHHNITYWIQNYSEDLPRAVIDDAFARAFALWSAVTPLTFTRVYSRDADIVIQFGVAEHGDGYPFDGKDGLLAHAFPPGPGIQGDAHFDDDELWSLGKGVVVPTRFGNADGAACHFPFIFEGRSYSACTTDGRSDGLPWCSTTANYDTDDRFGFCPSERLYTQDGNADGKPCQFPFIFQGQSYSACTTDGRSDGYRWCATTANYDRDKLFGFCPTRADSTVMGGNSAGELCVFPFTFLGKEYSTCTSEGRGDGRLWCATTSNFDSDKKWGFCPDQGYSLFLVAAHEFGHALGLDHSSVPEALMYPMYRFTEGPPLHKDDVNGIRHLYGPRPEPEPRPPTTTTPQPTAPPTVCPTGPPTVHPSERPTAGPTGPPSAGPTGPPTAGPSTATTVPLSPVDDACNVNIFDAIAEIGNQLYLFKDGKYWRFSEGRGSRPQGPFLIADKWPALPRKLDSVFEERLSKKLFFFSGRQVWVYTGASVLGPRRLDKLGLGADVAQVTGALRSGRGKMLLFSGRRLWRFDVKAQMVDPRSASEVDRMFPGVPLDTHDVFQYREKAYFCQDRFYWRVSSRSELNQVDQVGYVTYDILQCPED
Procedure, shortened: as §1

Compound: Cn1c(O)nc2cc(C(=O)NCCCCCCCCNC(=O)Cn3cnc4c(oc5ccccc54)c3=O)cnc21 [182+826 Linker 4]
- remaining activity (%) (MMP-2; MMP-2, concentration 0.12 µM): 92.61
- remaining activity (%) (MMP-2; MMP-2, concentration 0.49 µM): 95.31
- remaining activity (%) (MMP-2; MMP-2, concentration 1.95 µM): 84.32
- remaining activity (%) (MMP-2; MMP-2, concentration 7.81 µM): 92.35
- remaining activity (%) (MMP-2; MMP-2, concentration 31.25 µM): 84.58
- remaining activity (%) (MMP-2; MMP-2, concentration 125.00 µM): 82.25
- remaining activity (%) (MMP-2; MMP-2, concentration 500.00 µM): 42.45
- IC50 (MMP-2): 439 ± 56.5 µM
- remaining enzyme activity (% of control) (MMP-9; MMP-9, concentration 0.13 µM): 96.35
- remaining enzyme activity (% of control) (MMP-9; MMP-9, concentration 0.50 µM): 93.10
- remaining enzyme activity (% of control) (MMP-9; MMP-9, concentration 2.01 µM): 95.02
- remaining enzyme activity (% of control) (MMP-9; MMP-9, concentration 8.03 µM): 95.39
- remaining enzyme activity (% of control) (MMP-9; MMP-9, concentration 128.50 µM): 75.89
- remaining enzyme activity (% of control) (MMP-9; MMP-9, concentration 514.00 µM): 61.85

Compound: Cn1c(O)nc2cc(C(=O)NCCOCCOCCNC(=O)Cn3cnc4c(oc5ccccc54)c3=O)cnc21 [182+826 Linker 10]
- remaining activity (%) (MMP-2; MMP-2, concentration 0.12 µM): 104.96
- remaining activity (%) (MMP-2; MMP-2, concentration 0.49 µM): 102.80
- remaining activity (%) (MMP-2; MMP-2, concentration 1.95 µM): 96.45
- remaining activity (%) (MMP-2; MMP-2, concentration 7.81 µM): 96.46
- remaining activity (%) (MMP-2; MMP-2, concentration 31.25 µM): 89.20
- remaining activity (%) (MMP-2; MMP-2, concentration 125.00 µM): 71.67
- remaining activity (%) (MMP-2; MMP-2, concentration 500.00 µM): 58.28
- remaining enzyme activity (% of control) (MMP-9; MMP-9, concentration 0.12 µM): 94.26
- remaining enzyme activity (% of control) (MMP-9; MMP-9, concentration 0.49 µM): 94.53
- remaining enzyme activity (% of control) (MMP-9; MMP-9, concentration 1.95 µM): 79.71
- remaining enzyme activity (% of control) (MMP-9; MMP-9, concentration 7.81 µM): 87.21
- remaining enzyme activity (% of control) (MMP-9; MMP-9, concentration 31.25 µM): 75.62
- remaining enzyme activity (% of control) (MMP-9; MMP-9, concentration 125.00 µM): 66.17
- remaining enzyme activity (% of control) (MMP-9; MMP-9, concentration 500.00 µM): 43.49
- IC50 (MMP-9): 283 ± 84.3 µM

Compound: Cn1c(O)nc2cc(C(=O)NCCCCC=CC(=O)CC(=O)NCCNC(=O)Cn3cnc4c(oc5ccccc54)c3=O)cnc21 [182+826 Linker 12]
- remaining activity (%) (MMP-2; MMP-2, concentration 0.13 µM): 97.62
- remaining activity (%) (MMP-2; MMP-2, concentration 0.50 µM): 96.92
- remaining activity (%) (MMP-2; MMP-2, concentration 2.01 µM): 91.66
- remaining activity (%) (MMP-2; MMP-2, concentration 8.03 µM): 85.01
- remaining activity (%) (MMP-2; MMP-2, concentration 128.50 µM): 28.27
- remaining activity (%) (MMP-2; MMP-2, concentration 514.00 µM): 12.65
- IC50 (MMP-2): 62.3 ± 14 µM
- remaining enzyme activity (% of control) (MMP-9; MMP-9, concentration 0.12 µM): 93.35
- remaining enzyme activity (% of control) (MMP-9; MMP-9, concentration 0.49 µM): 105.08
- remaining enzyme activity (% of control) (MMP-9; MMP-9, concentration 1.95 µM): 88.98
- remaining enzyme activity (% of control) (MMP-9; MMP-9, concentration 7.81 µM): 94.00
- remaining enzyme activity (% of control) (MMP-9; MMP-9, concentration 31.25 µM): 85.67
- remaining enzyme activity (% of control) (MMP-9; MMP-9, concentration 125.00 µM): 51.95
- remaining enzyme activity (% of control) (MMP-9; MMP-9, concentration 500.00 µM): 12.28
- IC50 (MMP-9): 131 ± 24.2 µM

Compound: Cn1c(O)nc2cc(C(=O)NCCNC(=O)CSCCNC(=O)Cn3cnc4c(oc5ccccc54)c3=O)cnc21 [182+826 Linker 24]
- remaining activity (%) (MMP-2; MMP-2, concentration 0.09 µM): 97.26
- remaining activity (%) (MMP-2; MMP-2, concentration 0.36 µM): 110.41
- remaining activity (%) (MMP-2; MMP-2, concentration 1.46 µM): 108.70
- remaining activity (%) (MMP-2; MMP-2, concentration 5.83 µM): 101.42
- remaining activity (%) (MMP-2; MMP-2, concentration 23.31 µM): 109.20
- remaining activity (%) (MMP-2; MMP-2, concentration 93.25 µM): 102.62
- remaining activity (%) (MMP-2; MMP-2, concentration 373.00 µM): 72.08
- remaining enzyme activity (% of control) (MMP-9; MMP-9, concentration 0.09 µM): 91.31
- remaining enzyme activity (% of control) (MMP-9; MMP-9, concentration 0.36 µM): 105.17
- remaining enzyme activity (% of control) (MMP-9; MMP-9, concentration 1.46 µM): 94.51
- remaining enzyme activity (% of control) (MMP-9; MMP-9, concentration 5.83 µM): 85.81
- remaining enzyme activity (% of control) (MMP-9; MMP-9, concentration 23.31 µM): 80.00
- remaining enzyme activity (% of control) (MMP-9; MMP-9, concentration 93.25 µM): 70.35
- remaining enzyme activity (% of control) (MMP-9; MMP-9, concentration 373.00 µM): 44.33
- IC50 (MMP-9): 281 ± 97.2 µM

Compound: O=C(Cn1cnc2c(oc3ccccc32)c1=O)NCCNC(=O)c1cncc(O)c1 [182+828 Linker 1]
- remaining activity (%) (MMP-2; MMP-2, concentration 0.00933 µM): 100.18
- remaining activity (%) (MMP-2; MMP-2, concentration 0.0466 µM): 86.28
- remaining activity (%) (MMP-2; MMP-2, concentration 0.23 µM): 84.03
- remaining activity (%) (MMP-2; MMP-2, concentration 5.83 µM): 81.34
- remaining activity (%) (MMP-2; MMP-2, concentration 29.14 µM): 67.66
- remaining activity (%) (MMP-2; MMP-2, concentration 145.72 µM): 34.11
- remaining activity (%) (MMP-2; MMP-2, concentration 728.60 µM): 8.96
- IC50 (MMP-2): 77.1 ± 10 µM
- remaining enzyme activity (% of control) (MMP-9; MMP-9, concentration 0.08 µM): 88.36
- remaining enzyme activity (% of control) (MMP-9; MMP-9, concentration 0.42 µM): 92.30
- remaining enzyme activity (% of control) (MMP-9; MMP-9, concentration 2.10 µM): 86.01
- remaining enzyme activity (% of control) (MMP-9; MMP-9, concentration 10.52 µM): 90.65
- remaining enzyme activity (% of control) (MMP-9; MMP-9, concentration 52.60 µM): 56.79
- remaining enzyme activity (% of control) (MMP-9; MMP-9, concentration 263.00 µM): 22.31
- remaining enzyme activity (% of control) (MMP-9; MMP-9, concentration 1315.00 µM): 0.00
- IC50 (MMP-9): 92.1 ± 28.2 µM

Compound: O=C(Cn1cnc2c(oc3ccccc32)c1=O)NCCCCCCCCNC(=O)c1cncc(O)c1 [182+828 Linker 4]
- remaining activity (%) (MMP-2; MMP-2, concentration 0.0078 µM): 107.56
- remaining activity (%) (MMP-2; MMP-2, concentration 0.20 µM): 99.59
- remaining activity (%) (MMP-2; MMP-2, concentration 0.98 µM): 97.94
- remaining activity (%) (MMP-2; MMP-2, concentration 4.88 µM): 101.19
- remaining activity (%) (MMP-2; MMP-2, concentration 24.38 µM): 85.36
- remaining activity (%) (MMP-2; MMP-2, concentration 121.90 µM): 64.62
- remaining activity (%) (MMP-2; MMP-2, concentration 609.50 µM): 31.91
- remaining activity (%) (MMP-2; MMP-2, concentration 0.04 µM): 116.92
- IC50 (MMP-2): 188 ± 25.7 µM
- remaining enzyme activity (% of control) (MMP-9; MMP-9, concentration 0.08 µM): 90.17
- remaining enzyme activity (% of control) (MMP-9; MMP-9, concentration 0.39 µM): 88.39
- remaining enzyme activity (% of control) (MMP-9; MMP-9, concentration 1.95 µM): 91.84
- remaining enzyme activity (% of control) (MMP-9; MMP-9, concentration 9.75 µM): 88.91
- remaining enzyme activity (% of control) (MMP-9; MMP-9, concentration 48.76 µM): 78.10
- remaining enzyme activity (% of control) (MMP-9; MMP-9, concentration 243.80 µM): 49.14
- remaining enzyme activity (% of control) (MMP-9; MMP-9, concentration 1219.00 µM): 0.00
- IC50 (MMP-9): 233 ± 38.3 µM

Compound: O=C(Cn1cnc2c(oc3ccccc32)c1=O)NCCOCCOCCNC(=O)c1cncc(O)c1 [182+828 Linker 10]
- remaining activity (%) (MMP-2; MMP-2, concentration 0.0117 µM): 98.76
- remaining activity (%) (MMP-2; MMP-2, concentration 0.06 µM): 98.75
- remaining activity (%) (MMP-2; MMP-2, concentration 0.29 µM): 92.92
- remaining activity (%) (MMP-2; MMP-2, concentration 1.46 µM): 80.34
- remaining activity (%) (MMP-2; MMP-2, concentration 7.32 µM): 73.36
- remaining activity (%) (MMP-2; MMP-2, concentration 36.60 µM): 63.34
- remaining activity (%) (MMP-2; MMP-2, concentration 183.00 µM): 14.49
- remaining activity (%) (MMP-2; MMP-2, concentration 915.00 µM): 0.00
- IC50 (MMP-2): 43 ± 19.3 µM
- remaining enzyme activity (% of control) (MMP-9; MMP-9, concentration 0.06 µM): 97.14
- remaining enzyme activity (% of control) (MMP-9; MMP-9, concentration 0.29 µM): 97.22
- remaining enzyme activity (% of control) (MMP-9; MMP-9, concentration 1.46 µM): 90.75
- remaining enzyme activity (% of control) (MMP-9; MMP-9, concentration 7.32 µM): 93.96
- remaining enzyme activity (% of control) (MMP-9; MMP-9, concentration 36.60 µM): 74.71
- remaining enzyme activity (% of control) (MMP-9; MMP-9, concentration 183.00 µM): 29.12
- remaining enzyme activity (% of control) (MMP-9; MMP-9, concentration 915.00 µM): 0.00
- IC50 (MMP-9): 99.6 ± 31.7 µM
